According to publication PMC9909315, “SY-707, an ALK/FAK/IGF1R inhibitor, suppresses growth and metastasis of breast cancer cells” (Acta Biochimica et Biophysica Sinica, 2022):

Tests used:
MCF-7 cells = test: Would healing (migration) assay; format: cell-based; details: MCF-7, 24 h, vs control
Experimental: (§1) Totally, 5×10 ^5 cells were plated into each well of 6-well plates, and cultured to 70%–80% confluence, then the cell monolayer was gently and slowly scratched with a new 1-mL pipette tip across the center of the well. After scratching, the wells were gently washed with PBS twice to remove the detached cells, and replenished with fresh medium containing indicated concentration of compounds. The treated cells were allowed to grow for additional 24 h, and images were capturedunder a microscope. The migration distance were calculated and analyzed to evaluate the effects of compounds.

T47D cells = test: Would healing (migration) assay; format: cell-based; details: 24 h, vs control
Experimental: as §1

T47D xenograft = test: T47D tumor xenograft study; format: in vivo, nude mice
Experimental: Due to the strong cell growth inhibition potency of SY-707, we firstly evaluate its in vivo anti-cancer activity in T47D xenograft model mice. In this model, mice were orally administered twice a day with vehicle or SY-707 at dose of 100, 50 or 25 mg/kg after tumor size reached 150–300 mm ^3.
Next, we evaluated the combination effects of SY-707 and paclitaxel (an approved drug for breast cancer therapy) in T47D xenograft model. Mice bearing T47D breast cancer were divided randomly into 4 groups: vehicle, SY-707 (100 mg/kg/day), paclitaxel (10 mg/kg/week), and SY-707 plus paclitaxel groups.

[1] = tested on: 4T1 breast cancer metastasis to the lung; test: Metastasis analysis in vivo (lung nodules, 4T1 model); design: species or system nude mice; details: 4T1, treatment alone: SY-707 100 mg/kg/day PO; paclitaxel 10 or 20 mg/kg/week IV; 20 days; not statistically different
Experimental: Metastasis was detected in mouse lungs after the mice were sacrificed at the last dosing day. The lungs of each mouse were excised immediately and fixed with 4% paraformaldehyde for 24 h, then the lungs were photographed (three photographs per section per mouse) and the metastatic nodules in the lungs were manually counted and the data was analyzed for compound evaluation.
Mice were inoculated with 4T1 cells in PBS at right and left flanks expect the normal control group ( Figure 6A), SY-707 with or without paclitaxel was administered for 20 days when tumor volumes reached 150–300 mm ^3. The mice were sacrificed on the last day of drug administration, then the lungs were collected and metastatic nodules were counted manually for the evaluation of metastasis of 4T1 breast cancer.
The normal group (A) and the vehicle group which treatment with 20% SBE (B) were control. Mouse lungs were taken at the last day of treatment and fixed with 4% paraformaldehyde for 24 h, then the lungs were photographed and the metastatic nodules were counted manually for further analysis. *P<0.05, **P<0.01.

| Compound | migration distance (MCF-7 cells) | migration distance (T47D cells) | tumor growth inhibition rate (T47D xenograft; reference compound group, 21 days, dose not given) [%] | number of metastatic nodules in the lungs vs vehicle group [1] | tumor growth inhibition rate (T47D xenograft; combination study, paclitaxel 10 mg/kg/week alone, 24 days, P<0.05) [%] |
| --- | --- | --- | --- | --- | --- |
| CN(c1ncccc1CNc1nc(Nc2ccc3c(c2)CC(=O)N3)ncc1C(F)(F)F)S(C)(=O)=O [PF-562271, reference compound] | significant reduction of migration | significant reduction of migration | 20 | – | – |
| CC(=O)O[C@H]1C(=O)[C@@]2(C)[C@H]([C@H](OC(=O)c3ccccc3)[C@]3(O)C[C@H](OC(=O)[C@H](O)[C@@H](NC(=O)c4ccccc4)c4ccccc4)C(C)=C1C3(C)C)[C@]1(OC(C)=O)CO[C@@H]1C[C@@H]2O [paclitaxel, reference compound] | – | – | – | reduced the number of metastatic nodules | 24 |
